Experimental data as given in US10723724B2, “Compounds for treating degenerative diseases of central nervous system or brain tumor, and uses thereof” (SUN YAT-SEN UNIVERSITY, priority 2016, dated 2020).

Experiments:
Type in all cases: biochemical
SGK (SGK1) [1] = target: T1, SGK (SGK1) (Homo sapiens, UniProt O00141); experiment: Kinase screening service (Life Technologies): SGK1; details: SGK (SGK1)
T1 construct: IC50; other: SGK (SGK1); other: 10 μM, average of duplicates; SGK (SGK1)
Experimental: (§1) The inhibitory effect of PT109 on SGK and INK was detected by the kinase screening commercialization service of Life Technologies Corporation.
(§2) The inhibitory effect of PT109 on other kinases including SGK and JNK was detected by the Kinase Screening Service of Life Technologies Corporation (The concentration of compound 9 was 10 μM, measurements were performed in duplicates, and the value was represented by an average) to investigate the selectivity of the compound for JNK and SGK1.

SGK (SGK1) [2] = experiment: Kinase screening service (Life Technologies): SGK1; details: SGK1 versus SGK2 and SGK3
Experimental: as §1, §2

AURKC (Aurora C) = target: T2, AURKC (Aurora C) (Homo sapiens, UniProt Q9UQB9); experiment: Kinase screening service: AURKC; details: average of duplicates
T2 construct: purchased Life Technologies Corporation (Kinase Screening Service)
Experimental: as §2

CSNK1G1 (CK1 gamma 1) = target: T3, CSNK1G1 (CK1 gamma 1) (Homo sapiens, UniProt Q9HCP0); experiment: Kinase screening service: CSNK1G1; details: average of duplicates
T3 construct: purchased Life Technologies Corporation (Kinase Screening Service)
Experimental: as §2

CSNK1G3 (CK1 gamma 3) = target: T4, CSNK1G3 (CK1 gamma 3) (Homo sapiens, UniProt Q9Y6M4); experiment: Kinase screening service: CSNK1G3; details: average of duplicates
T4 construct: purchased Life Technologies Corporation (Kinase Screening Service)
Experimental: as §2

CSNK2A2 (CK2 alpha 2) = target: T5, CSNK2A2 (CK2 alpha 2) (Homo sapiens, UniProt P19784); experiment: Kinase screening service: CSNK2A2; details: average of duplicates
T5 construct: purchased Life Technologies Corporation (Kinase Screening Service)
Experimental: as §2

LTK (TYK1) = target: T6, LTK (TYK1) (Homo sapiens, UniProt P29376); experiment: Kinase screening service: LTK; details: average of duplicates
T6 construct: purchased Life Technologies Corporation (Kinase Screening Service)
Experimental: as §2

MAP3K9 (MLK1) = target: T7, MAP3K9 (MLK1) (Homo sapiens, UniProt P80192); experiment: Kinase screening service: MAP3K9; details: average of duplicates
T7 construct: purchased Life Technologies Corporation (Kinase Screening Service)
Experimental: as §2

MAP4K4 (HGK) = target: T8, MAP4K4 (HGK) (Homo sapiens, UniProt O95819); experiment: Kinase screening service: MAP4K4; details: average of duplicates
T8 construct: purchased Life Technologies Corporation (Kinase Screening Service)
Experimental: as §2

PHKG1 = target: T9, PHKG1 (Homo sapiens, UniProt Q16816); experiment: Kinase screening service: PHKG1; details: average of duplicates
T9 construct: purchased Life Technologies Corporation (Kinase Screening Service)
Experimental: as §2

PKN1 (PRK1) = target: T10, PKN1 (PRK1) (Homo sapiens, UniProt Q16512); experiment: Kinase screening service: PKN1; details: average of duplicates
T10 construct: purchased Life Technologies Corporation (Kinase Screening Service)
Experimental: as §2

PRKCB1 (PKC beta I) = target: T11, PRKCB1 (PKC beta I) (Homo sapiens, UniProt P05771); experiment: Kinase screening service: PRKCB1; details: average of duplicates
T11 construct: purchased Life Technologies Corporation (Kinase Screening Service)
Experimental: as §2

PRKCH (PKC eta) = target: T12, PRKCH (PKC eta) (Homo sapiens, UniProt P24723); experiment: Kinase screening service: PRKCH; details: average of duplicates
T12 construct: purchased Life Technologies Corporation (Kinase Screening Service)
T12 sequence (P24723 whole entry): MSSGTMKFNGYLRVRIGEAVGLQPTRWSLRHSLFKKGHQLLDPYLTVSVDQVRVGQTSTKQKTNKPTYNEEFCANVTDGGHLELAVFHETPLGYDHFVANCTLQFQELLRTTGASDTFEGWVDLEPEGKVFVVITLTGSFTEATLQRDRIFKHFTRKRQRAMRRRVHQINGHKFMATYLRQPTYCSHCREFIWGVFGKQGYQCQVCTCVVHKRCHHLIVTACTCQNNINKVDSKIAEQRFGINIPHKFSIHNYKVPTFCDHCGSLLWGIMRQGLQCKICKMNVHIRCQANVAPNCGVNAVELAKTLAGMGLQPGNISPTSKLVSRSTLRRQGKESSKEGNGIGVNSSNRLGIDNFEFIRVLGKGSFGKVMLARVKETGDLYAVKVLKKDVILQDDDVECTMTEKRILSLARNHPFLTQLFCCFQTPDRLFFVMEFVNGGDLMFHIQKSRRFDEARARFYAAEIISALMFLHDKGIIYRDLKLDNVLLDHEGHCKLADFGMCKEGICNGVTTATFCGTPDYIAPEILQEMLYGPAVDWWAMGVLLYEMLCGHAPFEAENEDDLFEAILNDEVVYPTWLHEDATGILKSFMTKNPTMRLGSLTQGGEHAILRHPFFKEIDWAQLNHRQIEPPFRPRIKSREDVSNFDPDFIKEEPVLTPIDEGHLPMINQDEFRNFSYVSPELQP
Experimental: as §2

PTK2B (FAK2) = target: T13, PTK2B (FAK2) (Homo sapiens, UniProt Q14289); experiment: Kinase screening service: PTK2B; details: average of duplicates
T13 construct: purchased Life Technologies Corporation (Kinase Screening Service)
Experimental: as §2

PTK6 (Brk) = target: T14, PTK6 (Brk) (Homo sapiens, UniProt Q13882); experiment: Kinase screening service: PTK6; details: average of duplicates
T14 construct: purchased Life Technologies Corporation (Kinase Screening Service)
Experimental: as §2

RPS6KA3 (RSK2) = target: T15, RPS6KA3 (RSK2) (Homo sapiens, UniProt P51812); experiment: Kinase screening service: RPS6KA3; details: average of duplicates
T15 construct: purchased Life Technologies Corporation (Kinase Screening Service)
T15 sequence (P51812 whole entry): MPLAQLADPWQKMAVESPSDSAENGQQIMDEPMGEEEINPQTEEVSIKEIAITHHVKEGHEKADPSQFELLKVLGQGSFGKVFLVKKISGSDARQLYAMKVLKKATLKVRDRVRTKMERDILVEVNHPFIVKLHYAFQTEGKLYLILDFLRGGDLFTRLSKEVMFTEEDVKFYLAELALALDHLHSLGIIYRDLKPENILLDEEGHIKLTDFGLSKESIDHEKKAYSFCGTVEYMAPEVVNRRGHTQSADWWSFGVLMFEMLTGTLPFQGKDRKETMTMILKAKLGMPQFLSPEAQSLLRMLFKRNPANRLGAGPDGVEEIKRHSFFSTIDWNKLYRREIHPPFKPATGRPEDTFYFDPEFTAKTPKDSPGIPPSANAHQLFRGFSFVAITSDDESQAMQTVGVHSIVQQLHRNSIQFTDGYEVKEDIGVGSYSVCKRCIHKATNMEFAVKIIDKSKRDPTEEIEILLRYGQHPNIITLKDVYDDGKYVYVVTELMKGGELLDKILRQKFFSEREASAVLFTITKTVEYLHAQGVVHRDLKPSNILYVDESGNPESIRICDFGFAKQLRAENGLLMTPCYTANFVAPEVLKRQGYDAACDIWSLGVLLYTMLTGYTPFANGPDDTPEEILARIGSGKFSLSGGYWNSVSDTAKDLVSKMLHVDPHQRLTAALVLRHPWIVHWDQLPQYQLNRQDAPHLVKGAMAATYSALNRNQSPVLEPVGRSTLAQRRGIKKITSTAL
Experimental: as §2

TBK1 = target: T16, TBK1 (Homo sapiens, UniProt Q9UHD2); experiment: Kinase screening service: TBK1; details: average of duplicates
T16 construct: purchased Life Technologies Corporation (Kinase Screening Service)
Experimental: as §2

TYRO3 (RSE) = target: T17, TYRO3 (RSE) (Homo sapiens, UniProt Q06418); experiment: Kinase screening service: TYRO3; details: average of duplicates
T17 construct: purchased Life Technologies Corporation (Kinase Screening Service)
T17 sequence (Q06418 41-890): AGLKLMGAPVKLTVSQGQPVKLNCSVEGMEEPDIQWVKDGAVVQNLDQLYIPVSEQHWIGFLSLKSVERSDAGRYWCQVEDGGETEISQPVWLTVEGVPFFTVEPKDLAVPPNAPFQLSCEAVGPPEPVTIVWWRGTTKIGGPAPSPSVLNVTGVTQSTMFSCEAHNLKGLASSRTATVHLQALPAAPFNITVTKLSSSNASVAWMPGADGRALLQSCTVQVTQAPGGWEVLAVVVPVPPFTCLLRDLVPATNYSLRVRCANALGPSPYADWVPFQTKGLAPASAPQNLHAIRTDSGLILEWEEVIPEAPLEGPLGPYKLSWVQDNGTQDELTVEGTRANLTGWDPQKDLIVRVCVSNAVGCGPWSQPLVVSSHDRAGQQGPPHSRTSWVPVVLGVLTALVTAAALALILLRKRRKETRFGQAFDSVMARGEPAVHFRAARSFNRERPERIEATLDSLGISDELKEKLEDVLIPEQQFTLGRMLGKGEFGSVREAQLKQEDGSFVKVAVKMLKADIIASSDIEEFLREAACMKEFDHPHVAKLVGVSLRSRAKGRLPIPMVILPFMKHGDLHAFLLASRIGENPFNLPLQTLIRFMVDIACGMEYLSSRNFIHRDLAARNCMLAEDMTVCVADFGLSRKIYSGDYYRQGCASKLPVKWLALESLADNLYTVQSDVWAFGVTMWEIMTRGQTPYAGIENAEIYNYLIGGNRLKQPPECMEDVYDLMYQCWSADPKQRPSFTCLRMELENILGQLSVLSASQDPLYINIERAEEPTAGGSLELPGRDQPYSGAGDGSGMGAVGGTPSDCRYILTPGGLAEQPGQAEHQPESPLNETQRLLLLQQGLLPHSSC
Experimental: as §2

PI4KB (PI4K beta) = target: T18, PI4KB (PI4K beta) (Homo sapiens, UniProt Q9UBF8); experiment: Kinase screening service: PI4KB; details: average of duplicates
T18 construct: purchased Life Technologies Corporation (Kinase Screening Service)
T18 sequence (Q9UBF8 whole entry): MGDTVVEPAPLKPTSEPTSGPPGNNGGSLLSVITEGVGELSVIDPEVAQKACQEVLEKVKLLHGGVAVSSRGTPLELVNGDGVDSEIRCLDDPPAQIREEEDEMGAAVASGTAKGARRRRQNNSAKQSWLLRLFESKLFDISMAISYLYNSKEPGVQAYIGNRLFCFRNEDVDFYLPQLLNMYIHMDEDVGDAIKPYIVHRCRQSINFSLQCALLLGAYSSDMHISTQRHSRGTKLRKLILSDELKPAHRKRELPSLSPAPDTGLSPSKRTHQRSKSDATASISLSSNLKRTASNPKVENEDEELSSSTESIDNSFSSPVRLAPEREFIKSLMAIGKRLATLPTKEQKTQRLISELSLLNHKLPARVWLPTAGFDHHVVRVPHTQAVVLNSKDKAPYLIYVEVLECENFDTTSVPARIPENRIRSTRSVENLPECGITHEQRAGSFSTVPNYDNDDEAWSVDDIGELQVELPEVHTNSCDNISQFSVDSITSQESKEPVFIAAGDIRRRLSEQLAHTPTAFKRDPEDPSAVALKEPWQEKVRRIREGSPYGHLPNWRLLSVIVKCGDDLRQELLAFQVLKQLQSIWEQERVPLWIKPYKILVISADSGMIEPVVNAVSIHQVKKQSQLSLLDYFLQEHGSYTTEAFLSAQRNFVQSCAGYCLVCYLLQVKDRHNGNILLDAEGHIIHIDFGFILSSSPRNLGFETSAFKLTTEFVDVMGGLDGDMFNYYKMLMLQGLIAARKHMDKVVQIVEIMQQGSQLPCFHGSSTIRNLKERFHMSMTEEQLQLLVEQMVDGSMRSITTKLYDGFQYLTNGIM
Experimental: as §2

MAP3K2 (MEKK2) = target: T19, MAP3K2 (MEKK2) (Homo sapiens, UniProt Q9Y2U5); experiment: Kinase screening service: MAP3K2; details: average of duplicates
T19 construct: purchased Life Technologies Corporation (Kinase Screening Service)
Experimental: as §2

MAP3K5 (ASK1) = target: T20, MAP3K5 (ASK1) (Homo sapiens, UniProt Q99683); experiment: Kinase screening service: MAP3K5; details: average of duplicates
T20 construct: purchased Life Technologies Corporation (Kinase Screening Service)
Experimental: as §2

MYO3B (MYO3 beta) = target: T21, MYO3B (MYO3 beta) (Homo sapiens, UniProt Q8WXR4); experiment: Kinase screening service: MYO3B; details: average of duplicates
T21 construct: purchased Life Technologies Corporation (Kinase Screening Service)
T21 sequence (Q8WXR4 whole entry): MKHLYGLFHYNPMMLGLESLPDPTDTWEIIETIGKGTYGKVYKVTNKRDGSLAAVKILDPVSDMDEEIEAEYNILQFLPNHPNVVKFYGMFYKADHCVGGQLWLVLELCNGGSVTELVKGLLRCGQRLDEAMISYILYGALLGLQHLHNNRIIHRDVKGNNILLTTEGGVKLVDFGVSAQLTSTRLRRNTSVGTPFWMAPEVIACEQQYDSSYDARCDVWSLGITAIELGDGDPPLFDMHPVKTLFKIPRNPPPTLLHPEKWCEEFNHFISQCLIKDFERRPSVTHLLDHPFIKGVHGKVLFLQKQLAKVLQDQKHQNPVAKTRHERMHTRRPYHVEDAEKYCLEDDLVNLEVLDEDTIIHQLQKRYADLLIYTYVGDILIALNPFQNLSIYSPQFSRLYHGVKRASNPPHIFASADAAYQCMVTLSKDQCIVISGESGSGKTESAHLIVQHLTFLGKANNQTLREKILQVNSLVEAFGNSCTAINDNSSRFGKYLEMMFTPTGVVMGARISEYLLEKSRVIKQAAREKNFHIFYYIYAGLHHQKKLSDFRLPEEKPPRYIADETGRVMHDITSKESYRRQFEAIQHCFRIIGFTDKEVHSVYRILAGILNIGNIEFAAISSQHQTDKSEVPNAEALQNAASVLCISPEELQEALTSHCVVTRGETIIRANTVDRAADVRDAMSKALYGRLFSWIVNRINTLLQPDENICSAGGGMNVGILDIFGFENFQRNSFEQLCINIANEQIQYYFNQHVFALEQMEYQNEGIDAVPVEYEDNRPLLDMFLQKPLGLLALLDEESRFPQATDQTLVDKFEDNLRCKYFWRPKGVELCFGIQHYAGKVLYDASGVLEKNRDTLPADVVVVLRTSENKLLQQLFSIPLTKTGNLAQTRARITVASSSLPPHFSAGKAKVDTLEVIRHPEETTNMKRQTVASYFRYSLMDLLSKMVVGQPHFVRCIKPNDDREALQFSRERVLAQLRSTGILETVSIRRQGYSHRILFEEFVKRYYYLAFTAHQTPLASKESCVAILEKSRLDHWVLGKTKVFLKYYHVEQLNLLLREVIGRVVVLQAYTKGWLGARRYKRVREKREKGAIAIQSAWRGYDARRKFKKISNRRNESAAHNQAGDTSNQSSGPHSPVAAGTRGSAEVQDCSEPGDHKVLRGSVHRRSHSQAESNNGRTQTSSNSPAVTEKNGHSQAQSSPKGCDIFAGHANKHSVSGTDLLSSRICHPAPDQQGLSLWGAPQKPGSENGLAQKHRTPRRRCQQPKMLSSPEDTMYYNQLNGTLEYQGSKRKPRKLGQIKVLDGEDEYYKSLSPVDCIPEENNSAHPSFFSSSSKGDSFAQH
Experimental: as §2

ULK1 = target: T22, ULK1 (Homo sapiens, UniProt O75385); experiment: Kinase screening service: ULK1; details: average of duplicates
T22 construct: purchased Life Technologies Corporation (Kinase Screening Service)
Experimental: as §2

[3] = tested on: other kinases including SGK and JNK; experiment: Kinase selectivity of PT109 (whole panel); details: 10 μM, kinase panel of Table 2
Experimental: as §2

T1 sequence (O00141 whole entry S422D, form open): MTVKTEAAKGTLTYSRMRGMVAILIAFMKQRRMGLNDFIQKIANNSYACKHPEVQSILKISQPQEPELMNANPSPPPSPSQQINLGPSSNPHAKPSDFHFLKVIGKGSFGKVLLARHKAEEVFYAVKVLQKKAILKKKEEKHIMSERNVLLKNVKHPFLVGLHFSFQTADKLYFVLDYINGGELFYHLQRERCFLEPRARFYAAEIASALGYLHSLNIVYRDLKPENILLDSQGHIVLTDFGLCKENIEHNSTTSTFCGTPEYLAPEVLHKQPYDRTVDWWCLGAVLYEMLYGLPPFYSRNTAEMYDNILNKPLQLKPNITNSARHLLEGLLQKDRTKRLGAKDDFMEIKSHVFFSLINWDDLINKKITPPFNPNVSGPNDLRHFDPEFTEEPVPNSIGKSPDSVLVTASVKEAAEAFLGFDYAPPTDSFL

O=C(CCCCC1CCSS1)NC1CCC(Nc2cccc3cnccc23)CC1 (stereo not shown) [PT109, 5-(1,2-dithiolan-3-yl)-N-(4-(isoquinolin-5-ylamino)cyclohexyl) pentanamide]
% Inhibition (SGK (SGK1) [1]; 10 μM, average of duplicates): 91% | IC50 (SGK (SGK1) [1]): 1340 nM | specificity for SGK1 (SGK (SGK1) [2]): better specificity for SGK1 | inhibition at 10 µM (AURKC (Aurora C)): 5% | inhibition at 10 µM (CSNK1G1 (CK1 gamma 1)): 9% | inhibition at 10 µM (CSNK1G3 (CK1 gamma 3)): 24% | inhibition at 10 µM (CSNK2A2 (CK2 alpha 2)): 11% | inhibition at 10 µM (LTK (TYK1)): 40% | inhibition at 10 µM (MAP3K9 (MLK1)): 2% | inhibition at 10 µM (MAP4K4 (HGK)): 34% | inhibition at 10 µM (PHKG1): 10% | inhibition at 10 µM (PKN1 (PRK1)): 16% | inhibition at 10 µM (PRKCB1 (PKC beta I)): -10% | inhibition at 10 µM (PRKCH (PKC eta)): -17% | inhibition at 10 µM (PTK2B (FAK2)): 8% | inhibition at 10 µM (PTK6 (Brk)): 7% | inhibition at 10 µM (RPS6KA3 (RSK2)): 54% | inhibition at 10 µM (TBK1): 10% | inhibition at 10 µM (TYRO3 (RSE)): 12% | inhibition at 10 µM (PI4KB (PI4K beta)): 39% | inhibition at 10 µM (MAP3K2 (MEKK2)): 10% | inhibition at 10 µM (MAP3K5 (ASK1)): 9% | inhibition at 10 µM (MYO3B (MYO3 beta)): 43% | inhibition at 10 µM (ULK1): 26% | specificity for SGK1 and JNK [3]: better specificity for SGK1 and JNK
